Measurements taken from article PMC10545696, “Fast functional mapping of ligand-gated ion channels” (Communications Biology, 2023).

Target: T1, P2X2 (His-rP2x2-StrepII) (Rattus norvegicus, UniProt P49653)
T1 construct: gene P2rx2; His tag and StrepII tag; homotrimer
T1 sequence (P49653 1-472): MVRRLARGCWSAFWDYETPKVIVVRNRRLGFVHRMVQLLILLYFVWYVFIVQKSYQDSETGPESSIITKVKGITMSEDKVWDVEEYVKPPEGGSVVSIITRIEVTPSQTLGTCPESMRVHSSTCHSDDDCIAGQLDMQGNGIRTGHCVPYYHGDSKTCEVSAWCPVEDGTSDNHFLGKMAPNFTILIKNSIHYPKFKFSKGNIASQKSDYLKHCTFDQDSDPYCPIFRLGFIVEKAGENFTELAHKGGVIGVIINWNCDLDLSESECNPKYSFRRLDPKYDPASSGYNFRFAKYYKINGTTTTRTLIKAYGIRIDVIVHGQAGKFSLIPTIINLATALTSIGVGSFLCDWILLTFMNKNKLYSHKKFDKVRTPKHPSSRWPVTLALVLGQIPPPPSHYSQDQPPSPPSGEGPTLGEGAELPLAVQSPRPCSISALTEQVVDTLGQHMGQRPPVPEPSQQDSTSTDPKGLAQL
Assay: whole-cell patch clamp, HEK293, multi-step microfluidic application
Format: cell-based

EC50: 1500 ± 20 nM
SMILES: Nc1ncnc2c1ncn2[C@@H]1O[C@H](COP(=O)(O)OP(=O)(O)OP(=O)(O)O)[C@@H](O)[C@H]1O [ATP]
